# Values quoted from earlier work, collected in patent US20110152294A1, “USE OF OSMOLYTES OBTAINED FROM EXTREMOPHILIC BACTERIA FOR THE PRODUCTION OF INHALABLE MEDICAMENTS FOR THE PROPHYLAXIS AND TREATMENT OF PULMONARY AND CARDIOVASCULAR DISEASES AND AN INHALATION DEVICE COMPRISING OSMOLYTE AS ACTIVE AGENT COMPONENT” (priority 2003, published 2011).
# System: cornea and iris of the eyes of rabbits
# Settings: external application on cornea and iris of rabbit eyes; effects disappeared afterwards
smiles,measurement,value
CC1=NC[C@H](O)[C@@H](C(=O)O)N1 [hydroxyectoine],eye irritation after external application,initial irritation and sensitization of the conjunctiva
